Assay results taken from patent US4163780A (Kirin-Seagram Limited, priority 1977, dated 1979).

System: influenza A2 -Kumamoto/Y5 (H2 N2) virus
Assay type: in vivo, influenza virus; DDI mice
Settings: Virazole 50 mg/kg, intraperitoneal, 15 times

With `NC(=O)c1ncn([C@@H]2O[C@H](CO)[C@@H](O)[C@H]2O)n1` [Virazole] as the compound, how does the “Average of survival days” value read?
The value was > 16.9 days.

And the Survival percentage?
Its Survival percentage is 30%.
